Measured values reported in patent publication US12187814B1, “Stapled antimicrobial peptide” (KING SAUD UNIVERSITY, priority 2024, dated 2025).
≈ marks a conversion by molar mass, not a printed value. Where two headings read alike, the source gives them in different places. Bridge positions count the residues as written; N and C are the ends. Square brackets hold non-standard residues; d marks the D form. Peptide text beside a SMILES is read from it. S5 = C=CCCC[C@](C)(N)C(=O)O

Experiments:
MRSA [1] = assay: Agar diffusion test (modified Kirby-Bauer), zone of inhibition; format: cell-based, Staphylococcus aureus; conditions: 30 μl per well, sAMP1 100 μg/ml, Kanamycin 50 μg/ml, 24 hours
Description: (§1) The agar diffusion method was used to examine the synthesized AMP's antibacterial activity. Pure colonies of Staphylococcus aureus and MRSA were used for antibacterial susceptibility testing according to Clinical Laboratory Standards Institute (CLSI) 2021 guideline) by using a modified Kirby-Bauer disk diffusion technique (Humphries, R. et al, “Overview of Changes to the Clinical and Laboratory Standards Institute Performance Standards for Antimicrobial Susceptibility Testing”, M100, 31st Edition, J. Clin. Microbiol. 2021 Nov. 18; 59 (12): e0021321). In brief, homogeneous colonies were chosen from each microbial strain and grown on Mullar Hilton broth at log phase. 0.5 McFarland standard culture was used to spread on to the Mullar Hilton agar plates. Freshly prepared (30 μl each) of Kanamycin 50 μg/ml and sAMP1 100 μg/ml was poured into 4 mm diameter well, blank well with an equivalent amount of saline served as a […] control. The plates were incubated for 24 hours, and the diameter of the inhibition zone was measured to determine susceptibility or resistance. The full analysis was carried out three times.

Staphylococcus aureus [2] = assay: as above; format: cell-based; conditions: 30 μl per well, sAMP1 100 μg/ml, Kanamycin 50 μg/ml, 24 hours
Description: as §1

MRSA [3] = system: MRSA
[4] = system: MCF-7 breast cancer cells
Description: Cytotoxicity & MTT Testing
(§2) Cell line MCF-7 and A549 cells were cultured under CO2 (5%) at 37° C. using Dulbecco's Modified Eagle's Medium (DMEM), accompanied with 1% mixture of “Penicillin-Streptomycin”, 10% Fetal Bovine Serum (FBS) and 1% L-Glutamine.

MRSA [5] = assay: microbe, parasite or virus in culture; conditions: Staphylococcus aureus
Staphylococcus aureus [6] = assay: microbe, parasite or virus in culture

Description for A549 lung cancer cells: Cytotoxicity & MTT Testing
as §2

CC[C@H](C)[C@H](NC(=O)[C@H](CCCNC(=N)N)NC(=O)[C@H](CCCCN)NC(=O)[C@]1(C)CCCC=CCCC[C@](C)(NC(=O)[C@H](CCCCN)NC(=O)[C@H](CCC(=O)O)NC(=O)[C@H](CCCCN)NC(=O)[C@H](CO)NC(=O)[C@H](CCCCN)NC(=O)[C@H](CCCNC(=N)N)NC(=O)[C@H](Cc2ccccc2)NC(=O)[C@@H](N)Cc2ccccc2)C(=O)NCC(=O)N[C@@H](CCCCN)C(=O)N[C@@H](CCC(=O)O)C(=O)N1)C(=O)N[C@H](C(N)=O)C(C)C [sAMP1, FFRKSKEK-S5-GKE-S5-KRIV] (H-FFRKSKEK[S5]GKE[S5]KRIV-NH2; staple 9-13; N-terminus assumed)
Zone of Inhibition (mm), Mean ± SD, n = 3 (MRSA [1]): 25.31±1.53 mm | Zone of Inhibition (mm), Mean ± SD, n = 3 (Staphylococcus aureus [2]): 22.52±2.15 mm | IC50 cell proliferation (MTT) (A549 lung cancer cells; 24 h): 54.22 µg/mL (≈ 25.5 µM) | anti-cell proliferation (MTT assay) (A549 lung cancer cells; A549 cells): dose-dependent anti-cell proliferation | effect on proliferation (A549 lung cancer cells; A549 cells, 25 μg/ml): significantly reduced the proliferation | MIC 96-well plate result (growth), replicates 1-3 (MRSA [3]; sAMP1 1.5625 μg/ml (row G)): Growth | MIC 96-well plate result (growth), replicates 1-3 (MRSA [3]; sAMP1 3.125 μg/ml (row F)): Growth | MIC 96-well plate result (growth), replicates 1-3 (MRSA [3]; sAMP1 6.25 μg/ml (row E)): Growth | MIC 96-well plate result (growth), replicates 1-3 (MRSA [3]; sAMP1 12.5 μg/ml (row D)): Growth | IC50 cell proliferation (MTT) ([4]; 24 h): 35.82 µg/mL (≈ 16.8 µM) | anti-cell proliferation (MTT assay) ([4]; MCF-7 cells): dose-dependent anti-cell proliferation | effect on proliferation ([4]; MCF-7 cells, 25 μg/ml): significantly reduced the proliferation

NC[C@H]1O[C@H](O[C@H]2[C@H](O)[C@@H](O[C@H]3O[C@H](CO)[C@@H](O)[C@H](N)[C@H]3O)[C@H](N)C[C@@H]2N)[C@H](O)[C@@H](O)[C@@H]1O [Kanamycin, reference compound]
zone of inhibition at 50 µg/mL (MRSA [1]; Staphylococcus aureus, read-out: Zone of Inhibition (mm), Mean ± SD, n = 3): 21.6 ± 2.17 mm | zone of inhibition at 50 µg/mL (Staphylococcus aureus [2]; read-out: Zone of Inhibition (mm), Mean ± SD, n = 3): 19.1 ± 1.38 mm | MIC (MRSA [5]): 3.12 µg/mL (≈ 6.45 µM) | MIC (Staphylococcus aureus [6]): 3.12 µg/mL (≈ 6.45 µM)
